Calls of active or inactive are those of the source.
Experiments:
[1] = HEK-293T viability loss after treatment – luminescence, T-cell screen hits, cytotoxicity control for TCR NF-kB inhibitor project, dose response (AID 489026); type: functional, cell-based;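 also: cells exposed to compound about 14 hours before the viability readout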
[2] = biological target: T1, Leucine aminopeptidase (Plasmodium falciparum 3D7, UniProt Q8IL11); test: P. falciparum M17LAP inhibitors, primary screen, biochemical, fluorogenic H-Leu-NHMec substrate, 1536-well (AID 1619); type: functional
T1 sequence (Q8IL11 whole entry): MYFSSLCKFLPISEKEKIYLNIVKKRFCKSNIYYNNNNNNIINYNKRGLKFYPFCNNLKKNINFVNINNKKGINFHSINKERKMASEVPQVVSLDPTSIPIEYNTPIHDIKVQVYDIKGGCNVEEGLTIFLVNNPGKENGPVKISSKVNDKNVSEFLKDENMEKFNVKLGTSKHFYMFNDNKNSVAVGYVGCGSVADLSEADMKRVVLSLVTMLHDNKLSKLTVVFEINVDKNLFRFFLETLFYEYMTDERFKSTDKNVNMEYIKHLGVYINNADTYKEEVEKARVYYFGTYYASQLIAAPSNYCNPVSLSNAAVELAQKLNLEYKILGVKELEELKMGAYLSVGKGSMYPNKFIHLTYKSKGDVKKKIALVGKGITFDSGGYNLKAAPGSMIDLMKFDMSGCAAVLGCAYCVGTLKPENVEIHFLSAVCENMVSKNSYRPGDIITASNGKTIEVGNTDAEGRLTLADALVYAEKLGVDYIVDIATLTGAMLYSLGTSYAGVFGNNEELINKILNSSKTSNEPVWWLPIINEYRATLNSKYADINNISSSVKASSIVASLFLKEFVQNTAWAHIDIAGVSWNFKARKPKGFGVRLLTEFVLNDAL

[3] = biological target: T2, Short transient receptor potential channel 4 (Mus musculus, UniProt Q9QUQ5); test: calcium entry via TRPC4 opening agents – cell-based, HEK293 TRPC4/mu-opioid, Fluo-4 calcium, dose response (AID 434937); type: functional
T2 sequence (Q9QUQ5 whole entry): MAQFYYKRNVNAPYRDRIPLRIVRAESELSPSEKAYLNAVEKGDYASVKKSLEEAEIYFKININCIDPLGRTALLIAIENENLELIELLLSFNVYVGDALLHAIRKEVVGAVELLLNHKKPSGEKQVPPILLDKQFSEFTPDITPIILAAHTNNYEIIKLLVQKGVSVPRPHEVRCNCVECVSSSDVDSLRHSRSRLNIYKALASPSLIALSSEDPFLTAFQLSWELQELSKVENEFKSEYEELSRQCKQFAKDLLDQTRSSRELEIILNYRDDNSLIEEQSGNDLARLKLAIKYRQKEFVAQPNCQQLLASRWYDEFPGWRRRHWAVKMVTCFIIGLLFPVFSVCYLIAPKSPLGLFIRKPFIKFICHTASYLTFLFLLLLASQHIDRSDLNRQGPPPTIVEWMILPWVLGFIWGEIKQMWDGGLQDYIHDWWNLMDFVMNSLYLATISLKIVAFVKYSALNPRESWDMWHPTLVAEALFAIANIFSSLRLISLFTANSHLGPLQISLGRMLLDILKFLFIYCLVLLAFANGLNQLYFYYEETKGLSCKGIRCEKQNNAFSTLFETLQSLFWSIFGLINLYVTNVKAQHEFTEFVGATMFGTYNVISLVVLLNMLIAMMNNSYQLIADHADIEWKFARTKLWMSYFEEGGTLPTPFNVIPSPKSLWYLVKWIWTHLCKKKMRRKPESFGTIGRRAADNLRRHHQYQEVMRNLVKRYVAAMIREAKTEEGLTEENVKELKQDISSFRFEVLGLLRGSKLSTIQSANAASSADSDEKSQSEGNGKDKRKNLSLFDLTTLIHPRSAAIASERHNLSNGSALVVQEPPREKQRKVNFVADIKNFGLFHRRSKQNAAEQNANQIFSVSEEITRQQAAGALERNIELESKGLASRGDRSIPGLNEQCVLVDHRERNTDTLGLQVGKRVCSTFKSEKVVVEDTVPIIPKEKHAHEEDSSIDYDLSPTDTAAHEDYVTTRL

[4] = biological target: Peroxisome proliferator-activated receptor gamma/Nuclear receptor coactivator 2 (Homo sapiens, UniProt P37231); type: functional;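 also: agonist potency for raising coactivator recruitment to the receptor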
[5] = biological target: Peroxisome proliferator-activated receptor gamma/Nuclear receptor coactivator 1 (Homo sapiens, UniProt P37231); type: functional;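 also: agonist potency as compounds enhance coactivator SRC-1 recruitment to PPARgamma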
Chain of Peroxisome proliferator-activated receptor gamma/Nuclear receptor coactivator 1 (P37231 whole entry): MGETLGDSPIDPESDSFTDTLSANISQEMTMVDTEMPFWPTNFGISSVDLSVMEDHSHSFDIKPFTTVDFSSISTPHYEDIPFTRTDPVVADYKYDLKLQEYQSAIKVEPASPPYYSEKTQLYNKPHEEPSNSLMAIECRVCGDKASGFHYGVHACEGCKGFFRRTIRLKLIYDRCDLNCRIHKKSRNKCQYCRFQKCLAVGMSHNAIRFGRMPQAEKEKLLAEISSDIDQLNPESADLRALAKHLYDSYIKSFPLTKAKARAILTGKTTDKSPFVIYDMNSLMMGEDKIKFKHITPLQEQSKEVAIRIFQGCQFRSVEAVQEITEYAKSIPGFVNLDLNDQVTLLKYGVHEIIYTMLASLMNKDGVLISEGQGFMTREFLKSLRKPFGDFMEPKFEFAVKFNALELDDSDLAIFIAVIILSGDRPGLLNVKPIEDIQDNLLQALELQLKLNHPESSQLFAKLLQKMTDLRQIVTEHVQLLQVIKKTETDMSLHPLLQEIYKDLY
Chain of Peroxisome proliferator-activated receptor gamma/Nuclear receptor coactivator 1 (Q15788 whole entry, further chain): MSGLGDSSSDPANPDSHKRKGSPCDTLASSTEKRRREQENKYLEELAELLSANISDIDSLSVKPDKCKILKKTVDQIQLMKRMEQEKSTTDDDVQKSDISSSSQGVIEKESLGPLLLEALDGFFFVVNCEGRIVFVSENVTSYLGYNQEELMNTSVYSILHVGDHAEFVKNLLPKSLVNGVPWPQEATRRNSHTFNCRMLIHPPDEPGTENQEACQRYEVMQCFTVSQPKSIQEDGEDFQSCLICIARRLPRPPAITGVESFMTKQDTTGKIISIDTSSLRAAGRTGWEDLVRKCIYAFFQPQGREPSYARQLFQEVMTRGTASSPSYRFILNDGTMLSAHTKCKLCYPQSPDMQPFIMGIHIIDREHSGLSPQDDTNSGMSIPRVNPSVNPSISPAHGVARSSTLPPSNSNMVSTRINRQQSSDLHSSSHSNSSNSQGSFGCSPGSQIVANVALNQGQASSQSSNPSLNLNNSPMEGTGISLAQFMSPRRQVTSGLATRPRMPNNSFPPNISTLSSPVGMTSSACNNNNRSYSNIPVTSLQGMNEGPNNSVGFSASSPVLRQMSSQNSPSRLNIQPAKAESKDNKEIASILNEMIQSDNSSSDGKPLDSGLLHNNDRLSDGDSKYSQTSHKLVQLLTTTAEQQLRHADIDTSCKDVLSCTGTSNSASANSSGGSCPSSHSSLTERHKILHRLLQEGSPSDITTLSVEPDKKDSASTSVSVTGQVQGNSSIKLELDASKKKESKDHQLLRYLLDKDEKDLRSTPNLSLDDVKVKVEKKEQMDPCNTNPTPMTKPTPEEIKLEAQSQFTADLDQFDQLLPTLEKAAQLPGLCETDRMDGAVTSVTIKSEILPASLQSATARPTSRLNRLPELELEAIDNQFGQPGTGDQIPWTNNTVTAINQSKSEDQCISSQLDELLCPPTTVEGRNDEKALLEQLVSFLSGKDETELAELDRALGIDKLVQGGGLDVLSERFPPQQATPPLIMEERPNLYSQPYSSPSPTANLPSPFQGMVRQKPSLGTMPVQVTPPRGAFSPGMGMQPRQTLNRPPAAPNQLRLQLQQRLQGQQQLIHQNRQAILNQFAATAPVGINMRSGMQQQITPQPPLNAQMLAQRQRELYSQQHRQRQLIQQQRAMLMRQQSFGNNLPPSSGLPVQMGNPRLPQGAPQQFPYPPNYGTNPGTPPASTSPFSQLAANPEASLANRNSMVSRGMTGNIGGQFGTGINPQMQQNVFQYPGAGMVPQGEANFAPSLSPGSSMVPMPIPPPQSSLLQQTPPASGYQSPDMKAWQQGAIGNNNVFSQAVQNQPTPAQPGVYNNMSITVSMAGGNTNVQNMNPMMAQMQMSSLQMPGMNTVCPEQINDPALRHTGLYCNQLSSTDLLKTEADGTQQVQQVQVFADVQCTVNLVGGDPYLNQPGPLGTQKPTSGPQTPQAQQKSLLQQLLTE

[6] = biological target: Peroxisome proliferator-activated receptor gamma/Nuclear receptor coactivator 3 (Homo sapiens, UniProt P37231); type: functional;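 also: agonist potency for raising coactivator recruitment to the receptor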
Chain of Peroxisome proliferator-activated receptor gamma/Nuclear receptor coactivator 3 (P37231 whole entry): as the sequence (P37231 whole entry) above
Chain of Peroxisome proliferator-activated receptor gamma/Nuclear receptor coactivator 3 (Q9Y6Q9 whole entry, further chain): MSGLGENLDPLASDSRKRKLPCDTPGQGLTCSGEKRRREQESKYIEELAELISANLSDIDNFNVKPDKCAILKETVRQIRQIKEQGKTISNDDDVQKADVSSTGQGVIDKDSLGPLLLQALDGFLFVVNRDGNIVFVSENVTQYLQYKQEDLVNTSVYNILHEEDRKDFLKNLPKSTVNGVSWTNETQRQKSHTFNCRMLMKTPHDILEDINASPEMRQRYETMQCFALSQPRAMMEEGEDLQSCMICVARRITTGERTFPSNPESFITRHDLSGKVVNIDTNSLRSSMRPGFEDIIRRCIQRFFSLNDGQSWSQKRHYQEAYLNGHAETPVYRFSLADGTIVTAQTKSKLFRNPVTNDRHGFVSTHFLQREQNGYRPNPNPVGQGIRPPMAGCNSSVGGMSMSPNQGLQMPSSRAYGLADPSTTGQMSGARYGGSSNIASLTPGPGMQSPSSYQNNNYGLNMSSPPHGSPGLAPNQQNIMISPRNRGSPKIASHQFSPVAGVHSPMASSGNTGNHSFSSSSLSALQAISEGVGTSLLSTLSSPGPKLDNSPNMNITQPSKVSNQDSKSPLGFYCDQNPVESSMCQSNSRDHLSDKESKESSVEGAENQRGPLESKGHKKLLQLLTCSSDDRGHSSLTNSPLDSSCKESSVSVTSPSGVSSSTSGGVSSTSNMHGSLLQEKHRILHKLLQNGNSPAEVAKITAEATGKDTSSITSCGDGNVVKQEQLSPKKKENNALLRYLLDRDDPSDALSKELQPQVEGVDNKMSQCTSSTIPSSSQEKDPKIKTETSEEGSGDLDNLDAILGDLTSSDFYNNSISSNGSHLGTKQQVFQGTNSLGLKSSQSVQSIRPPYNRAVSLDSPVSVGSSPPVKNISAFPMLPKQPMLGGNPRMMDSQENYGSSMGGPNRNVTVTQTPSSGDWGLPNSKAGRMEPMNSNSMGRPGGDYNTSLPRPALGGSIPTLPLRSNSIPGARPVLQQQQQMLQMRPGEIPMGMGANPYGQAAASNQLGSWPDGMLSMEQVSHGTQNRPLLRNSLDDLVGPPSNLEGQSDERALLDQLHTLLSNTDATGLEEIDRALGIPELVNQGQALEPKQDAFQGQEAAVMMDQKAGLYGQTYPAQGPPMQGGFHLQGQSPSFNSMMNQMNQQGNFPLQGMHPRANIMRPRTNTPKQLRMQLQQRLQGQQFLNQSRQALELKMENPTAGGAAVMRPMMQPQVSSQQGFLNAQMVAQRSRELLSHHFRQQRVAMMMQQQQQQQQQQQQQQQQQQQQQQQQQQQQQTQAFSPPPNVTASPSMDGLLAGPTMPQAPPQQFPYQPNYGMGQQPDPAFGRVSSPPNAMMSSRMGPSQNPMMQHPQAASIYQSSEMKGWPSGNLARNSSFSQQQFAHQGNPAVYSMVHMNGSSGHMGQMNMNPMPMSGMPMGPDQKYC

[7] = M. tuberculosis H37Rv growth inhibitors, H37Rv strain (AID 1626); type: functional
[8] = THP-1 cell cytotoxicity, dose response, cytotoxicity control for non-replicating M. tuberculosis project (AID 489025); type: functional
[9] = Vero E6 cell cytotoxicity, dose response, cytotoxicity control for non-replicating M. tuberculosis project, secondary assay (AID 492998); type: functional, VeroE6; conditions: Vero C1008
[10] = cells; type: functional
[11] = tested on: Streptococcus sp. 'group A'; test: Streptococcus pyogenes SK(-)GAS viability under kanamycin – luminescence, BacTiterGlo, confirmation, counter-screen for streptokinase expression inhibitor project, dose response (AID 1900); type: functional, organism-based
[12] = biological target: T3, Streptokinase A (Streptococcus pyogenes serotype M1, UniProt P10520); test: viability-normalized secreted streptokinase activity reduction – plasminogen activation absorbance, OD405, dose response (AID 1914); type: functional, Streptococcus pyogenes M1 GAS;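 also: secreted streptokinase activity via plasminogen activation per viability signal from cell pellet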
T3 sequence (P10520 whole entry): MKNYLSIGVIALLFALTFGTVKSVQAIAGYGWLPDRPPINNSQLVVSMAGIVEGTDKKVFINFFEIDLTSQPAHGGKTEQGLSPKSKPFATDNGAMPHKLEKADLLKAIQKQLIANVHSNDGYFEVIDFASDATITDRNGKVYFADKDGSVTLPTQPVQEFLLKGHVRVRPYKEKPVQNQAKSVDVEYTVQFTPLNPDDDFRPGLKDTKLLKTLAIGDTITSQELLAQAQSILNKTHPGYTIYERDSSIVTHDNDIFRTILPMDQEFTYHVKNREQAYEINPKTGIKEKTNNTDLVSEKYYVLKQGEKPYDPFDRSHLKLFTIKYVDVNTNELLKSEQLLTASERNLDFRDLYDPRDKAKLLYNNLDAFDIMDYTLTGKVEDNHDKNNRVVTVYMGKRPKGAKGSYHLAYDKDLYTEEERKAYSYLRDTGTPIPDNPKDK

[13] = tested on: Streptococcus; test: GAS UMAA2166 growth inhibition – luminescence, BacTiterGlo, counter-screen for streptokinase expression inhibitor project, dose response (AID 1915); type: functional, organism-based;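 also: potency for reduction of bacterial viability or growth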
[14] = biological target: Beta-galactosidase (Escherichia coli, UniProt Q8VNN2); test: detection-enzyme interference by beta-gal modulators – biochemical, E. coli enzyme, set 3, artefact control for CCR6 antagonist project, dose response (AID 504712); type: functional
Chain of Beta-galactosidase (Q8VNN2 whole entry): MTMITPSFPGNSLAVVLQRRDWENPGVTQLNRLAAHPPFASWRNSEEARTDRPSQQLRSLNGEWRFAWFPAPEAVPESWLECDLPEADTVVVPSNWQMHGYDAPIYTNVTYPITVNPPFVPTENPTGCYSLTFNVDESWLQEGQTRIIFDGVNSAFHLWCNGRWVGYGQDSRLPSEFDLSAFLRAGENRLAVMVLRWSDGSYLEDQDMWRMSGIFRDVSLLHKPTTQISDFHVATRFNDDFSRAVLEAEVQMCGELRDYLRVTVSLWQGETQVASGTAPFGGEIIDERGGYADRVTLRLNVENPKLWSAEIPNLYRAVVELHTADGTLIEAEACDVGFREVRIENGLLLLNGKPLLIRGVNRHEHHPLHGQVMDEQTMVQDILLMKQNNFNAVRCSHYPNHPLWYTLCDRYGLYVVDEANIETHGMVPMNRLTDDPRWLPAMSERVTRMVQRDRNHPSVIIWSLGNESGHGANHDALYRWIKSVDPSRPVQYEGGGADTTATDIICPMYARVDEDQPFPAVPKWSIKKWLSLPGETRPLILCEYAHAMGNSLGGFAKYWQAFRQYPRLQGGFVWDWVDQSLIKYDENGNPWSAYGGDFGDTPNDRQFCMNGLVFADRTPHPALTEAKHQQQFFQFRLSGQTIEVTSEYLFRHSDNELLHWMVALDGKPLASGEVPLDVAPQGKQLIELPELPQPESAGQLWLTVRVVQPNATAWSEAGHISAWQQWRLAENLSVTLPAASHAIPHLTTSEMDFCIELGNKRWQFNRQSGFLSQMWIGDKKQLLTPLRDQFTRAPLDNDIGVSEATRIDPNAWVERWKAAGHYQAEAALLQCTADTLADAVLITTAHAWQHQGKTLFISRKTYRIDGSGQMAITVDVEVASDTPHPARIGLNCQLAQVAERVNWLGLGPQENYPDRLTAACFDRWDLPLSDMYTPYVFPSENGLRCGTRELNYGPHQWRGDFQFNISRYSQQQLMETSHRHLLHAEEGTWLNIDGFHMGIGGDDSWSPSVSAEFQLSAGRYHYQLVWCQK

[15] = biological target: T4, Aminopeptidase N (Plasmodium falciparum FcB1/Columbia, UniProt O96935); test: malaria alanyl aminopeptidase activity blockers – biochemical, fluorogenic H-Leu-NHMec substrate, 1536-well (AID 1445); parameters: species or system Plasmodium falciparum 3D7, 3D7
T4 sequence (O96935 whole entry): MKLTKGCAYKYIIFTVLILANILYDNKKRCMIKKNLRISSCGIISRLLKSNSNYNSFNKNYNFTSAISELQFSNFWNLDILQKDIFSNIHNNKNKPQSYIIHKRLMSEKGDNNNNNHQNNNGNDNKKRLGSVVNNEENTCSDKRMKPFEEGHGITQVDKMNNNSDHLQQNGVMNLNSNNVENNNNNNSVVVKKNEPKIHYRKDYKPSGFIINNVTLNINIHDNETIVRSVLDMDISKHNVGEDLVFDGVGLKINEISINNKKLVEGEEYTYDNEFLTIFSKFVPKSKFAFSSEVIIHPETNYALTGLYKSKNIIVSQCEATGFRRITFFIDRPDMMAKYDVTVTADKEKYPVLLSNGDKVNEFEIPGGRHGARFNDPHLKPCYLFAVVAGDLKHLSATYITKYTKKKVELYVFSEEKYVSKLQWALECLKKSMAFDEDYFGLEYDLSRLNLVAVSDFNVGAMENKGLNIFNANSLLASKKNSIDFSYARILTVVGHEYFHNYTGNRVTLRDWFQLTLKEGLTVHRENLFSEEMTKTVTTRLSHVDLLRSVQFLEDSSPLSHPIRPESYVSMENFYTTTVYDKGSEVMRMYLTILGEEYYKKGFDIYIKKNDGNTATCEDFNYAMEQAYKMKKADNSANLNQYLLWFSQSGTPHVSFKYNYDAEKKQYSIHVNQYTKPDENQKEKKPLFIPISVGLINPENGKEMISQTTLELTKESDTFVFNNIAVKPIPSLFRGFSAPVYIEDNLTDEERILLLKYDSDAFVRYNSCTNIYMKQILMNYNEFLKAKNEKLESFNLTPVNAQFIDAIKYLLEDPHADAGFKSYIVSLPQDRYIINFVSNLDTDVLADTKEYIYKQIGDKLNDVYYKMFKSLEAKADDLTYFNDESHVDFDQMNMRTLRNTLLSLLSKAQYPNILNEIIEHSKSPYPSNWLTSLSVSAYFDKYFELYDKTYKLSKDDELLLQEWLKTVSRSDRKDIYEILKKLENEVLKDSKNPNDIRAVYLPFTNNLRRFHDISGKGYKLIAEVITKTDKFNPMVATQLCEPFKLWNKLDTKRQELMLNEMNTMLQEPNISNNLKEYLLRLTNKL

[16] = tested on: Vero; test: cells; type: functional; conditions: Chlorocebus sabaeus
[17] = biological target: Induced myeloid leukemia cell differentiation protein Mcl-1 (Homo sapiens, UniProt Q07820); type: functional
[18] = Luminescence Cell-Based Dose Confirmation HTS to Identify Activators of 5'UTR Stem-Loop Driven Alpha-Synuclein mRNA Translation in H4 Neuroglioblastoma Cells. [Related pubchem assays: 1829 (Project Summary), 1814 (Primary HTS)]; type: functional
[19] = Luminescence Cell-Based Dose Response HTS to Identify Activators of Luciferase Translation or Activity in H4 […] Cells. [Related pubchem assays: 1829 (Project Summary), 1814 (Primary HTS)]; type: functional
[20] = tested on: H4; test: Luminescence Cell-Based Dose Response HTS to Identify Activators of 5'UTR Stem-Loop Driven Prion Protein mRNA Translation in H4 Neuroglioblastoma Cells. [Related pubchem assays: 1829 (Project Summary), 1814 (Primary HTS)]; type: functional; conditions: Homo sapiens

With `CCCCCCCOc1ccc(OC(=O)c2ccncc2)cc1` the IC50 [1] was > 80 µM (inactive).
In the case of `COC(=O)c1c(NC(=O)C2C3C=CC(CC3)C2C(=O)O)sc(C)c1C` (stereo not drawn), the IC50 [2] is reported as 19 µM (active).
For `CCOC(=O)C1(Cc2cccc(F)c2)CCN(Cc2cnc(C)s2)CC1`, the EC50 [3] was 0.944 µM (active).
With `COc1ccc([C@H]2CC(=O)C=C(c3ccc(OC)cc3OC)C2)cc1` the IC50 [1] was > 80 µM (inactive).
With `Cc1cc(C)c(C(=O)CSc2nnc(-c3ccccc3Br)o2)cc1C` the EC50 [4] was 32.6 µM (not active), the EC50 [5] was 51.9 µM (not active) and the EC50 [6] was 69.8 µM (not active).
For `CCOc1ccc(NC(=O)CSc2nc(C)cc(C)n2)cc1`, the IC50 [2] was 4.3 µM (active).
For `Cc1nn(-c2ccccc2)c(Cl)c1/C=N/O`, the IC50 [7] was > 100 µM (active).
With `Clc1cccc(OCCN2CCN(CCOc3cccc(Cl)c3)CC2)c1` the CC50 [8] was 31.3 µM (active), the CC50 [9] was > 20 µM (active) and the IC50 [10] was 23.9 µM (active).
In the case of `COc1ccc(NC(=O)CSc2nnc[nH]2)c([N+](=O)[O-])c1`, the IC50 [2] is reported as 17 µM (active).
With `CC(=O)N1CCc2cc(Br)cc(S(=O)(=O)NCCCN(C)Cc3ccccc3)c21` the EC50 [3] was 0.149 µM (active).
With `C/C(=N\NC(=S)NCCc1ccccc1)c1ccc(Cl)cc1Cl` the EC50 [11] was 4.66 µM (active), the EC50 [12] was > 150 µM (inconclusive) and the EC50 [13] was 21.2 µM (active). For the same compound, the IC50 [14] was > 66.6 µM (inactive).
With `Nc1nc2c(s1)COc1ccccc1-2` the IC50 [7] was > 100 µM (active).
With `O=C(c1cc(COc2ccc(F)cc2Cl)on1)N1CCCC(OCc2cccnc2)C1` (stereo not drawn) the EC50 [4] was > 79.4 µM (not active), the EC50 [5] was > 79.4 µM (not active) and the EC50 [6] was > 79.4 µM (not active).
For `CCOC(=O)c1c(NC(=O)CSc2nnc(C)c(=O)[nH]2)sc2c1CCCC2`, the IC50 [2] was 9.34 µM (active) and the IC50 [15] was 62.1 µM (active).
With `CCOC(=O)c1ccccc1NC(=O)c1cn(-c2ccc(C)c(C)c2)c(=O)c2ccccc12` the EC50 [4] was > 79.4 µM (not active), the EC50 [5] was > 79.4 µM (not active) and the EC50 [6] was > 79.4 µM (not active).
For `Cc1ccccc1C(=O)NNC(=S)NC(=O)c1cccs1`, the EC50 [11] was 3.53 µM (active), the EC50 [12] was > 150 µM (not active) and the EC50 [13] was 18.2 µM (active). For the same compound, the EC50 [3] was 5.96 µM (active) and the CC50 [16] was > 25 µM (active).
With `O=C(CNC(=O)C(c1ccccc1)c1ccccc1)N/N=C/c1cccnc1` the IC50 [17] was 5.72 µM (not active).
For `CCOC(=O)C1CCCN(S(=O)(=O)c2cc(Br)cc3c2N(C(=O)C2CC2)CC3)C1` (stereo not drawn), the EC50 [4] was > 79.4 µM (not active), the EC50 [5] was > 79.4 µM (not active) and the EC50 [6] was > 79.4 µM (not active).
In the case of `CCOC(=O)c1cnc(Nc2nc3ccccc3o2)nc1CSC(=S)N1CCCCC1`, the EC50 [18] is reported as > 60 µM (not active), the EC50 [19] is reported as 7.71 µM (active) and the EC50 [20] is reported as > 120 µM (not active). The CC50 [8] was > 40 µM (active), the CC50 [9] was 9.21 µM (active) and the IC50 [10] was 2.4 µM (active).
In the case of `COc1ccc(-c2cc(C(F)F)n3ncc(C(=O)N4CCCc5ccccc54)c3n2)cc1`, the EC50 [4] is reported as > 79.4 µM (not active), the EC50 [5] is reported as > 79.4 µM (not active) and the EC50 [6] is reported as > 79.4 µM (not active).
For `CC1Cc2ccccc2N1C(=S)NC(=O)c1cccc(Br)c1` (stereo not drawn), the IC50 [14] was > 66.6 µM (inactive).
In the case of `CCOC(=O)c1ccc(NC(=O)CCNC(=O)c2ccc([N+](=O)[O-])cc2)cc1`, the IC50 [7] is reported as > 100 µM (active).
With `O=C(Nc1nccs1)c1ccc(NC(=O)C2CC=CCC2C(=O)O)cc1` (stereo not drawn) the IC50 [2] was 23.2 µM (active).
